Reference: patent US9315522B2, “Antibacterial compounds” (JANSSEN SCIENCES IRELAND UC, priority 2012, dated 2016)
Values after ≈ are worked out from the molar mass of the structure shown.

How the values were obtained:
[1] = tested on: Staphylococcus aureus ATCC 29213; assay: Antibacterial susceptibility testing, IC90 determination (STA); format: cell-based; conditions: Staphylococcus aureus, ATCC29213, Staphylococcus aureus ATCC 29213, broth microdilution, resazurin; read-out: STA (361.159) IC90
How it was run: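 S. aureus ATCC 29213 tested by broth microdilution in Mueller-Hinton broth, 5×10^5 CFU/ml, two-fold compound dilutions typically 63 to 0.49 μM, 1.25% DMSO, 16-20 h at 35° C. Growth read fluorometrically with resazurin (ex 540/em 590 nm); IC90 in μg/ml is 90% growth-inhibitory concentration.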

[2] = biological target: T1, S. aureus ATCC 29213 FabI (Staphylococcus aureus, UniProt Q6GI75); assay: Staphylococcus aureus FabI enzyme inhibition assay; format: biochemical; conditions: read-out: FabI (300.235) IC50 (converted)
T1 sequence (Q6GI75 1-256): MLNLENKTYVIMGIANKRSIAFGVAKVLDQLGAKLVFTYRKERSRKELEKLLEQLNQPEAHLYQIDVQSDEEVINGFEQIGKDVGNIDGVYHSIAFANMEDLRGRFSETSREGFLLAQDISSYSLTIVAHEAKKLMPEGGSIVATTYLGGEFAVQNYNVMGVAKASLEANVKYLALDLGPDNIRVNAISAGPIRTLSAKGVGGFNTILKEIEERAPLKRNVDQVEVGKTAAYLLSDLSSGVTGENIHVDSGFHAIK
How it was run: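 S. aureus ATCC 29213 FabI (50 μg/ml) with 250 μM crotonoyl-CoA and 625 μM NADH in 100 mM NaADA pH 6.5, inhibitor 50–0.39 μM, 30 min at room temperature. Stopped by Tris pH 9.0 shift; NADH at 340 nm versus no-compound and no-enzyme controls; IC50 in μg/ml.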

[3] = Cytotoxicity MTT assay (HELAM); format: cell-based, Human; conditions: human, HelaM cells, read-out: HELAM (222.125) CC50
How it was run: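 HelaM cells exposed 72 h at 37° C to serial dilutions, typically 25 to 0.8 μM, in 0.5% DMSO. MTT formazan dissolved in 2-propanol, absorbance at 540 nm minus 690 nm; CC50 is concentration halving viability.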

[4] = tested on: S. aureus strain ATCC 29213; assay: In vivo efficacy, peritonitis model of S. aureus infection; conditions: female Swiss albino mice, IP infection, inoculum 8.9 log10, PO, QD, Sol 20% CD + 1HCl, 3 days post-infection
Description: The concept of studying the in vivo effect of an antibacterial compound by treating intraperitoneally infected mice was introduced in 1911 for optochin against pneumococci (Morgenroth and Levy, 1911). The popularity of the model comes from the ease of its use with short-duration experiments, reproducible infections and simple end-points.
Methicillin-sensitive S. aureus strain ATCC 29213 was used to infect female Swiss albino mice. A Brain Heart Infusion (BHI) broth bacterial culture was inoculated the day before infection, incubated at 37° C. overnight and diluted in fresh BHI broth to the desired concentration. Intraperitoneal (i.p.) injection of ˜5×10^9 colony forming units (CFU) was performed in either of the lateral lower quadrants of the abdomen. After inoculation, mice were kept in their cages under daily observation for development of signs of infection or death. For the treatment of mice, the p.o. route was used and each mouse was treated individually by gavage. Example of Cpd No. 48 was formulated as a 20% HP-β-cyclodextrin and example of Cpd No. 38 was formulated as a water/Tween-20 suspension. The parameter used for monitoring the course of infection and the effect of treatment was death or survival of the animals over 3 days post-infection. As death could also be due to toxic side effects, a non-infected control group of 3 mice, treated with the highest dose of the compound tested, was included.

Work on `O=C1CNCc2cc(/C=C/C(=O)N3CC4C=C(c5nccs5)CC4C3)cnc2N1` (centres unmarked) [compound 48] yielded an IC90 [1] of 0.24 µg/mL (≈ 0.589 µM), an IC50 [2] of about 663 nM and a CC50 at 72 h [3] of over 10.2 µg/mL. For the same compound, the “% Survival” value ([4]; 1 mpk) was 57% and the “% Survival” value ([4]; 5 mpk) was 100%.
